Experimental data reported in the supplement of paper PMC10627819.

Legend:
Details in all cases: main component drawn
S. aureus DSM 20231 [1] = test: Bliss interaction score (quartile over a dose matrix) (fitness difference); higher = more antagonism (negative = synergy)
Method in brief: (§1)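 The Bliss score takes observed fitness and subtracts the expected fitness, calculated as a product of single-drug fitness values. Those single-drug values were inferred from the combination data. Fitness is OD595 at entry into stationary phase divided by the plate's robust no-drug mean, capped at 1, and the score is summarised by quartiles across technical, biological and donor/recipient replicates.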

B. subtilis 168 = test: as above
Method in brief: as §1

S. pneumoniae D39V = test: as above
Method in brief: as §1

S. aureus Newman [2] = test: as above
Method in brief: as §1

S. aureus DSM 20231 [3] = test: fitness (endpoint OD595 vs no drug) (fraction); higher = more growth
Method in brief: (§2)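 In 384-well plates at 37 °C, cultures began at OD595 0.01 in 30 µl, with 55 µl used for S. pneumoniae. OD595 readings every 30 min for 14 h were corrected by the first reading. Fitness divides the stationary-phase transition optical density by the robust mean of no-drug control wells. The result is capped at 1.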

S. aureus Newman [4] = test: as above
Method in brief: as §2
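Throughout, for Bliss interaction score (quartile over a dose matrix): first quartile when negative (synergy) and third quartile when positive (antagonism).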
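Throughout, for fitness (endpoint OD595 vs no drug): OD595 on entry to stationary phase over no-drug wells; at most 1.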

CC[C@H]1OC(=O)[C@H](C)[C@@H](O[C@H]2C[C@@](C)(OC)[C@@H](O)[C@H](C)O2)[C@H](C)[C@@H](O[C@@H]2O[C@H](C)C[C@H](N(C)C)[C@H]2O)[C@](C)(O)C[C@@H](C)CN(C)[C@H](C)[C@@H](O)[C@]1(C)O [Azithromycin] + CCCCCCCCCC(=O)N[C@@H]1[C@H]([C@@H]([C@H](O[C@H]1OC2=C3C=C4C=C2OC5=C(C=C(C=C5)[C@H]([C@H]6C(=O)N[C@@H](C7=C(C(=CC(=C7)O)OC8[C@H]([C@H]([C@@H]([C@H](O8)CO)O)O)O)C9=C(C=CC(=C9)[C@H](C(=O)N6)NC(=O)[C@@H]4NC(=O)[C@@H]1C2=CC(=CC(=C2)OC2=C(C=CC(=C2)[C@H](C(=O)N[C@H](CC2=CC(=C(O3)C=C2)Cl)C(=O)N1)N)O)O)O)C(=O)O)O[C@H]1[C@@H]([C@H]([C@@H]([C@H](O1)CO)O)O)NC(=O)C)Cl)CO)O)O [Teicoplanin]
Details	Bliss interaction score
B. subtilis 168	-0.0653
S. aureus DSM 20231 [1]	0.104
S. aureus Newman [2]	0.169
S. pneumoniae D39V	0.0706

fitness
Details	partner 0.1562 µg/mL	partner 0.3125 µg/mL	partner 0.625 µg/mL
S. aureus DSM 20231 [3], first compound 0.125 µg/mL	0.915	0.924	0.991
S. aureus DSM 20231 [3], first compound 0.25 µg/mL	0.935	0.987	≥ 1
S. aureus Newman [4], first compound 0.125 µg/mL	0.899	0.928	≥ 1
S. aureus Newman [4], first compound 0.25 µg/mL	0.978	0.974	0.775

fitness, S. aureus Newman [4], one replicate
Details	first compound 0.125 µg/mL	first compound 0.25 µg/mL	first compound 0.5 µg/mL
partner 0.62 µg/mL	0.799	0.998	0.863
partner 1.24 µg/mL	0.786	0.812	0.896
partner 2.48 µg/mL	0.57	0.55	0.579

C[n+]1ccc(-c2cc[n+](C)cc2)cc1 [Paraquat] + CCCCCCCCCC(=O)N[C@@H]1[C@H]([C@@H]([C@H](O[C@H]1OC2=C3C=C4C=C2OC5=C(C=C(C=C5)[C@H]([C@H]6C(=O)N[C@@H](C7=C(C(=CC(=C7)O)OC8[C@H]([C@H]([C@@H]([C@H](O8)CO)O)O)O)C9=C(C=CC(=C9)[C@H](C(=O)N6)NC(=O)[C@@H]4NC(=O)[C@@H]1C2=CC(=CC(=C2)OC2=C(C=CC(=C2)[C@H](C(=O)N[C@H](CC2=CC(=C(O3)C=C2)Cl)C(=O)N1)N)O)O)O)C(=O)O)O[C@H]1[C@@H]([C@H]([C@@H]([C@H](O1)CO)O)O)NC(=O)C)Cl)CO)O)O [Teicoplanin]
Details	Bliss interaction score
B. subtilis 168	-0.044
S. aureus DSM 20231 [1]	0.0665
S. aureus Newman [2]	0.0904
S. pneumoniae D39V	0.0634

fitness
Details	first compound 1.25 µg/mL	first compound 2.5 µg/mL	first compound 5 µg/mL
S. aureus DSM 20231 [3], partner 0.1562 µg/mL	0.957	0.954	0.967
S. aureus DSM 20231 [3], partner 0.3125 µg/mL	0.99	≥ 1	≥ 1
S. aureus DSM 20231 [3], partner 0.625 µg/mL	≥ 1	≥ 1	≥ 1
S. aureus Newman [4], partner 0.1562 µg/mL	≥ 1	≥ 1	≥ 1
S. aureus Newman [4], partner 0.3125 µg/mL	≥ 1	0.98	0.962
S. aureus Newman [4], partner 0.625 µg/mL	0.912	0.87	0.846

fitness, S. aureus Newman [4], one replicate
Details	first compound 1.25 µg/mL	first compound 2.5 µg/mL	first compound 5 µg/mL
partner 0.62 µg/mL	0.795	0.782	0.775
partner 1.24 µg/mL	0.737	0.745	0.761
partner 2.48 µg/mL	0.336	0.402	0.117
